What was measured:
hDP/Gqs5 = biological target: T1, hDP/Gqs5 (Homo sapiens, UniProt Q13258); test: FLIPR calcium signal, HEK-293(EBNA) cells expressing hDP/Gqs5; assay type: cell-based
T1 construct: expressed in transfected cells; host or cells: HEK-293(EBNA)
T1 sequence (Q13258 1-359): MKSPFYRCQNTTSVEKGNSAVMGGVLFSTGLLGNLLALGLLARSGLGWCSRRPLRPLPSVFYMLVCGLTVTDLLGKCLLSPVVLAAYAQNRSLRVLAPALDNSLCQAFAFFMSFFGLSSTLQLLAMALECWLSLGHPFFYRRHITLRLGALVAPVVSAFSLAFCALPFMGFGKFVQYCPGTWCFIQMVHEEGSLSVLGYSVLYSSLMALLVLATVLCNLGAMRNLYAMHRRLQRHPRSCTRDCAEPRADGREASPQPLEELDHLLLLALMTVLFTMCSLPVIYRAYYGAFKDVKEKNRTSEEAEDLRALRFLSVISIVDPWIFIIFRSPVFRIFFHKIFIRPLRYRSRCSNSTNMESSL
Description: (§1) HEK-293(EBNA) cells, stably expressing one type or subtype of recombinant human prostaglandin receptors (prostaglandin receptors expressed: hDP/Gqs5; hEP1; hEP2/Gqs5; hEP3A/Gqi5; hEP4/Gqs5; hFP; hIP; hTP), were cultured in 100 mm culture dishes in high-glucose DMEM medium containing 10% fetal bovine serum, 2 mM l-glutamine, 250 µg/ml geneticin (G418) and 200 μg/ml hygromycin B as selection markers, and 100 units/ml penicillin G, 100 µg/ml streptomycin and 0.25 μg/ml amphotericin B.
(§2) Cells were seeded at a density of 5×10^4 cells per well in Biocoat® Poly-D-lysine-coated black-wall, clear-bottom 96-well plates (Becton-Dickinson) and allowed to attach overnight in an incubator at 37° C. Cells were then washed two times with HBSS-HEPES buffer (Hanks Balanced Salt Solution without bicarbonate and phenol red, 20 mM HEPES, pH 7.4) using a Denley Cellwash plate washer (Labsystems). After 45 minutes of dye-loading in the dark, using the calcium-sensitive dye Fluo-4 […] at a final concentration of 2 μM, plates were washed four times with HBSS-HEPES buffer to remove excess dye leaving 100 μl in each well. Plates were re-equilibrated to 37° C. for a few minutes.
(§3) Cells were excited with an Argon laser at 488 nm, and emission was measured through a 510-570 nm bandwidth emission filter (FLIPR™, Molecular Devices, Sunnyvale, Calif.). Drug solution was added in a 50 µl volume to each well to give the desired final concentration. The peak increase in fluorescence intensity was recorded for each well. On each plate, four wells each served as negative (HBSS-HEPES buffer) and positive controls (standard agonists: BW245C (hDP); PGE2 (hEP1; hEP2/Gqs5; hEP3A/Gqi5; hEP4/Gqs5); PGF2α (hFP); carbacyclin (hIP); U-46619 (hTP), depending on receptor). The peak fluorescence change in each drug-containing well was then expressed relative to the controls.
(§4) Compounds were tested in a high-throughput (HTS) or concentration-response (CoRe) format. In the HTS format, forty-four compounds per plate were examined in duplicates at a concentration of 10^−5 M. To generate concentration-response curves, four compounds per plate were tested in duplicates in a concentration range between 10^−5 and 10^−11 M. The duplicate values were averaged. In either, HTS or CoRe format each compound was tested on at least 3 separate plates using cells from different passages to give an n≧3.

EP2 [1] = biological target: T2, EP2 (Homo sapiens, UniProt P43116); test: cAMP measurement, EP2 (data in parentheses); assay type: cell-based; details: data in parentheses refer to cAMP measurement
T2 sequence (P43116 whole entry): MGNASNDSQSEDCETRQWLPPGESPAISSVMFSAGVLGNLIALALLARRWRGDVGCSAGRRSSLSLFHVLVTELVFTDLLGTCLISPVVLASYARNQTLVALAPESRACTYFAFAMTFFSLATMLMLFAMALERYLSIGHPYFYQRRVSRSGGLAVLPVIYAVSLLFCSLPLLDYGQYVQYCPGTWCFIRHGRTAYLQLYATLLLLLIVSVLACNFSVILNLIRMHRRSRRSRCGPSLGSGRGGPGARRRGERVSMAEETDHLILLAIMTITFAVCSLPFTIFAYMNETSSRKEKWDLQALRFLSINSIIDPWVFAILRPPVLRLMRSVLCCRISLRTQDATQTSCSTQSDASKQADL

hFP = biological target: T3, hFP (Homo sapiens, UniProt P43088); test: FLIPR calcium signal, HEK-293(EBNA) cells expressing hFP; assay type: cell-based
T3 construct: expressed in transfected cells; host or cells: HEK-293(EBNA)
T3 sequence (P43088 whole entry): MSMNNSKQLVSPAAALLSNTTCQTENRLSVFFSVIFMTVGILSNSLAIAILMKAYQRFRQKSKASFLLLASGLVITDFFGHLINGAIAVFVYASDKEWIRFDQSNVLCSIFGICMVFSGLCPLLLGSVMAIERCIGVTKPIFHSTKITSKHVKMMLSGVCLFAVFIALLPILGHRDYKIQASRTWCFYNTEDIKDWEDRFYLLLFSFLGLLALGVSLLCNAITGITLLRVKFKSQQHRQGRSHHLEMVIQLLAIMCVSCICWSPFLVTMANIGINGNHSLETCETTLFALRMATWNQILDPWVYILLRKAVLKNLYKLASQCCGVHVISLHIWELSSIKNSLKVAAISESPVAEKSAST
Description: as §1, §2, §3, §4

EP2 [2] = biological target: T2, EP2; test: Competition binding, [3H]PGE2, HEK 293 cells stably expressing human EP2 receptors; set-up: expressed in transfected cells; host or cells: HEK 293; details: [3H]PGE2 competition
Description: Competition binding experiments were performed in a medium containing Hank's balanced salt solution, Hepes 20 mM, pH 7.3, membranes (˜60 μg protein) or 2×10^5 cells from HEK 293 cells stably expressing human EP2 receptors, [^3H]PGE2 (10 nM) and various concentrations of test compounds in a total volume of 300 μl. Reaction mixtures were incubated at 23° C. for 60 min, and were filtered over Whatman GF/B filters under vacuum. Filters were washed three times with 5 ml ice-cold buffer containing 50 mM Tris/HCl (pH 7.3). Non-specific binding was estimated in the presence of excess unlabeled PGE2 (10 μM). Binding data fitted to the binding model for a single class of binding sites, using nonlinear regression analysis. IC50 values thus obtained were converted to Ki using the equation of Ki=(IC50/(1+[L]/KD) where [L] represents PGE2 concentration (10 nM) and KD the dissociation constant for [3H]PGE2 at human EP2 receptors (40 nM).
HEK-293 cells stably expressing the human or feline FP receptor, or EP1, EP2, or EP4 receptors were washed with TME buffer, scraped from the bottom of the flasks, and homogenized for 30 sec using a Brinkman PT 10/35 polytron. TME buffer was added to achieve a final 40 ml volume in the centrifuge tubes (the composition of TME is 100 mM TRIS base, 20 mM MgCl2, […]; 10N HCl is added to achieve a pH of 7.4).
The cell homogenate was centrifuged at 19000 r.p.m. for 20 min at 4° C. using a Beckman Ti-60 rotor. The resultant pellet was resuspended in TME buffer to give a final 1 mg/ml protein concentration, as determined by Biorad assay. Radioligand binding competition assays vs. [^3H-]17-phenyl PGF2α (5 nM) were performed in a 100 μl volume for 60 min. Binding reactions were started by adding plasma membrane fraction. The reaction was terminated by the addition of 4 ml ice-cold TRIS-HCl buffer and rapid filtration through glass fiber GF/B filters using a Brandel cell harvester. The filters were washed 3 times with ice-cold buffer and oven dried for one hour.
[^3H-]PGE2 (specific activity 180 Ci mmol) was used as the radioligand for EP receptors. [^3H]17-phenyl PGF2α was employed for FP receptor binding studies. Binding studies employing EP1, EP2, EP4 and FP receptors were performed in duplicate in at least three separate experiments. A 200 μl assay volume was used. Incubations were for 60 min at 25° C. and were terminated by the addition of 4 ml of ice-cold 50 mM TRIS-HCl, followed by rapid filtration through Whatman GF/B filters and three additional 4 ml washes in a cell harvester (Brandel). Competition studies were performed using a final concentration of 5 nM [^3H]-PGE2, or 5 nM [^3H] 17-phenyl PGF2α and non-specific binding determined with 10^−5M of unlabeled PGE2, or 17-phenyl PGF2α, according to receptor subtype studied.

Structure (SMILES) | Ca2+ Signal-EC50(nM) DP (hDP/Gqs5) | EC50 (EP2 [1]) | Ca2+ Signal-EC50(nM) FP (hFP) | Ki (EP2 [2]) | EC50 (hDP/Gqs5; read-out: Ca2+ Signal-EC50(nM) DP)
CCCCCC(O)c1ccc([C@H]2C(=O)CC[C@@H]2CCCc2ccc(C(=O)O)s2)cc1 (stereo partly shown) [compound 1] | notactive | 5 nM | notactive | 43 nM | –
CCCCCC(O)c1ccc([C@H]2C(=O)CC[C@@H]2CCCc2ccc(C(=O)O)s2)cc1 (stereo partly shown) [compound 2] | – | 9 nM | notactive | 70 nM | 9060 nM
CCCCCC(O)c1ccc([C@@H]2[C@@H](CCCc3ccc(C(=O)O)s3)CCC2(Cl)Cl)cc1 (stereo partly shown) [compound 3] | notactive | 3 nM | notactive | 89 nM | –
CCCCCC(O)c1ccc([C@H]2C(=O)CC[C@@H]2C/C=C\CCCC(=O)O)cc1 (stereo partly shown) [compound 5] | notactive | 34 nM | notactive | 1050 nM | –
CCCCCC(O)c1ccc([C@@H]2[C@@H](C/C=C\CCCC(=O)O)CC[C@H]2Cl)cc1 (stereo partly shown) [compound 6] | notactive | 94 nM | notactive | 401 nM | –
CCCCCC(O)c1ccc([C@@H]2[C@@H](C/C=C\CCCC(=O)O)CC[C@H]2O)cc1 (stereo partly shown) [compound 7] | notactive | 73 nM | notactive | 2310 nM | –
CCCCCC(O)c1ccc([C@H]2C(=O)C=C[C@@H]2CCCc2ccc(C(=O)O)s2)cc1 (stereo partly shown) [compound 11] | notactive | 9 nM | notactive | 173 nM | –

— patent publication US7439372B2, “Therapeutic compounds” (Allergan, Inc., priority 2006, dated 2008)
